Measured values as given in patent US11427560B2, “Composition and methods for inhibiting mammalian sterile 20-like kinase 1” (The Scripps Research Institute, priority 2015, dated 2022).

Columns and labels:
human islets = assay: High glucose/palmitate induced apoptotic activity in human islets; conditions: high glucose and palmitate (HG/Pal), 25 μM neratinib, FIG. 8
Source text: Freshly isolated human islets from a single donor were exposed to high glucose and palmitate (HG/Pal) to induce apoptosis.

beta cells = assay: Beta cell apoptosis with increasing neratinib concentrations (FIG. 3); format: cell-based; conditions: increasing concentrations of neratinib

SMILES: CCOc1cc2ncc(C#N)c(Nc3ccc(OCc4ccccn4)c(Cl)c3)c2cc1NC(=O)/C=C/CN(C)C [neratinib]
- MST1 phosphorylation (pMST1) (human islets): inhibited
- induction of cleaved caspase 3 (Cl Casp3) (human islets): inhibited
- Beta cell apoptosis (beta cells): decrease with exposure to increasing concentrations
